This is an account of results in patent US20250326771A1, “PIPERAZINE DERIVATIVES USEFUL IN HIV THERAPY” (VIIV HEALTHCARE COMPANY, priority 2022, published 2025).

The structures appear in SMILES notation. Where two headings read alike, the source gives them in different places.

Assay [1] addresses XIAP-BIR3 (Homo sapiens (Human), UniProt P98170). Kind of assay: BIR binding assay (FRET competition), XIAP BIR3. The following applies: for XIAP BIR3 vs BIR2 separation window: fold separation (FS) for XIAP. The method, boiled down: (§1)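 His-tagged domains (50 nM cIAP1-BIR3, 325 nM cIAP2-BIR2, 325 nM cIAP1-BIR2, 100 nM XIAP-BIR3) compete with compounds for a 200 nM AlexaFluor647-labelled SMAC/DIABLO peptide in HEPES buffer, pH 7.4, for 60 min. Then 2 nM Eu-W1024 is added for 30 min. The 615/665 nm ratio is fit by four-parameter fit to give IC50.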

Assay [2] concerns Jurkat HIV-luciferase clones. The experiment in a line: Jurkat latency reversal assay. In kind it is cell-based. The following applies: Homo sapiens, 48 h; Jurkat latency reversal assay potency; read-out: Jurkat pEC50 (converted). The method, boiled down: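 A 1:1:1 mix of three Jurkat clones (C16, 115, N6) carrying integrated luciferase-expressing HIV proviruses, 5,000 cells/well, was exposed to 3-fold, 14-point compound titrations from 10 μM at 0.5% DMSO for 48 h at 37° C. Steady-Glo luminescence was fitted by four-parameter logistic regression to give EC50 and maximal percent activation relative to vehicle.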

Assay [3] has as its target cIAP1-BIR2 (Homo sapiens (Human), UniProt Q13490). Kind of assay: BIR binding assay (FRET competition), cIAP1 BIR2. The method, boiled down:
as §1

In assay [4] the target is cIAP2-BIR3 (Homo sapiens (Human), UniProt Q13489). Kind of assay: BIR binding assay (FRET competition), cIAP2 BIR3. To be noted: for cIAP2 BIR3 vs BIR2 separation window: fold separation (FS) for cIAP2.
Chain of cIAP2-BIR3 (Q13489 238-349): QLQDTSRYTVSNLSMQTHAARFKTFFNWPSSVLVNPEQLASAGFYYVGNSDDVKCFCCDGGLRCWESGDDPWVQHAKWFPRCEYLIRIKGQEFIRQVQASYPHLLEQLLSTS
Assay [5] deals with cIAP2-BIR2 (Homo sapiens (Human), UniProt Q13489). The experiment in a line: BIR binding assay (FRET competition), cIAP2 BIR2. A digest of the protocol: as §1
Chain of cIAP2-BIR2 (Q13489 158-242): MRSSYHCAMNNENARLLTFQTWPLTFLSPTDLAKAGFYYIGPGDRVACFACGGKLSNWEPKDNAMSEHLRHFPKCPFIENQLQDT
Assay [6] deals with XIAP-BIR2 (Homo sapiens (Human), UniProt P98170). The experiment in a line: BIR binding assay (FRET competition), XIAP BIR2. The following applies: read-out: XIAP BIR2 (pIC50) (converted). A digest of the protocol:
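Compounds in a 15-point, 3-fold series competed with an AlexaFluor647 SMAC peptide (AVPIAQKSE, 200 nM) for 200 nM His-tagged XIAP-BIR2 over 60 min in pH 7.4 HEPES/CHAPS/DTT buffer. Eu-W1024 (2 nM) was then added for 30 min. IC50 and pIC50 were derived from the 615 nm/665 nm emission ratio by variable-slope fit.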

Assay [7] has as its target cIAP1-BIR3 (Homo sapiens (Human), UniProt Q13490). The experiment in a line: BIR binding assay (FRET competition), cIAP1 BIR3. To be noted: for cIAP1 BIR3 vs BIR2 separation window: fold separation (FS) for cIAP1. A digest of the protocol:
as §1

Chain of XIAP-BIR2 (P98170 124-240): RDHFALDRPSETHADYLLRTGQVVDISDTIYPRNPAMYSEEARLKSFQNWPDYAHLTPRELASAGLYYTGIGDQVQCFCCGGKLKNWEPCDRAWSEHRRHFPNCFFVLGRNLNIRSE
Chain of cIAP1-BIR3 (Q13490 253-363): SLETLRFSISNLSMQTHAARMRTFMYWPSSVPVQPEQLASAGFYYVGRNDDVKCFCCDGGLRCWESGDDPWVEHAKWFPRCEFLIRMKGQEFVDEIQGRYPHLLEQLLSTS
Chain of cIAP1-BIR2 (Q13490 173-257): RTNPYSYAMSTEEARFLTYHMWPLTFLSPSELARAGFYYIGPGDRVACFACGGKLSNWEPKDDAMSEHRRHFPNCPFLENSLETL
Chain of XIAP-BIR3 (P98170 241-356): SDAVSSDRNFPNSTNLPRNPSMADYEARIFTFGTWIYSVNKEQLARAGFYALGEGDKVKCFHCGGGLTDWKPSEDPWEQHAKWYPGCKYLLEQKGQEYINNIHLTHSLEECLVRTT

On to `C[C@@H]1CN(CC(=O)N2CC(C)(C)c3[nH]c(=O)c(Cc4ccc(F)cc4)cc32)[C@@H](CN2CCO[C@H](C(=O)N(C)CC3CCN(C(=O)[C@@H]4CN(C[C@H]5CN[C@H](C)CN5CC(=O)N5CC(C)(C)c6[nH]c(=O)c(Cc7ccc(F)cc7)cc65)CCO4)CC3)C2)CN1` [Example 132, (S)-4-(((2R,5R)-1-(2-(6-(4-fluorobenzyl)-3,3-dimethyl-5-oxo-2,3,4,5-tetrahydro-1H-pyrrolo[3,2-b]pyridin-1-yl)-2-oxoethyl)-5-methylpiperazin-2-yl)methyl)-N-((1-((S)-4-(((2R,5R)-1-(2-(6-(4-fluorobenzyl)-3,3-dimethyl-5-oxo-2,3,4,5-tetrahydro-1H-pyrrolo[3,2-b]pyridin-1-yl)-2-oxoethyl)-5-methylpiperazin-2-yl)methyl)morpholine-2-carbonyl)piperidin-4-yl)methyl)-N-methylmorpholine-2-carboxamide], for which the IC50 in assay [1] is 15.8 to 31.6 nM; in assay [3], 3160 to 10000 nM; in assay [4], 7.94 to 15.8 nM; in assay [5], 1000 to 3160 nM; in assay [6] (FRET competition binding) it was 10000 to 51300 nM; in assay [7] it was 7.94 to 15.8 nM. Also, the “XIAP BIR3 vs BIR2 separation window” value in assay [1] is given as “++++ (FS>10,000)”. In addition, the EC50 in assay [2] was 12.6 to 63.1 nM. Moreover, the “cIAP2 BIR3 vs BIR2 separation window” value in assay [4] is reported as “+++ (10,000>FS>1,000)”. Further, the “cIAP1 BIR3 vs BIR2 separation window” value in assay [7] was “+++ (10,000>FS>1,000)”.
Consider `C[C@@H]1CN(CC(=O)N2CC(C)(C)c3[nH]c(=O)c(Cc4ccc(F)cc4)cc32)[C@@H](CN2CCN(C(=O)CCCCCCCCC(=O)N3CCN(C[C@H]4CN[C@H](C)CN4CC(=O)N4CC(C)(C)c5[nH]c(=O)c(Cc6ccc(F)cc6)cc54)[C@H](C)C3)C[C@H]2C)CN1` [Example 3, 1,10-bis((R)-4-(((2R,5R)-1-(2-(6-(4-fluorobenzyl)-3,3-dimethyl-5-oxo-2,3,4,5-tetrahydro-1H-pyrrolo[3,2-b]pyridin-1-yl)-2-oxoethyl)-5-methylpiperazin-2-yl)methyl)-3-methylpiperazin-1-yl)decane-1,10-dione], for which the IC50 in assay [1] is 31.6 to 501 nM; in assay [3], 22.4 to 1000 nM; in assay [4], 15.8 to 31.6 nM; in assay [5], 1000 to 3160 nM; in assay [6] (FRET competition binding), 10000 to 51300 nM; in assay [7], 7.94 to 15.8 nM. Further, the “XIAP BIR3 vs BIR2 separation window” value in assay [1] is reported as “+++ (10,000>FS>1,000)”. Moreover, the EC50 in assay [2] is 12.6 to 63.1 nM. Besides, the “cIAP2 BIR3 vs BIR2 separation window” value in assay [4] is recorded as “++ (1,000>FS>100)”. The “cIAP1 BIR3 vs BIR2 separation window” value in assay [7] is “++ (1,000>FS>100)”.
Consider `C[C@@H]1CN(CC(=O)N2CC(C)(C)c3[nH]c(=O)c(Cc4ccc(F)cc4)cc32)[C@@H](CN2CCC(CCN(C)C(=O)c3ccc(C(=O)N(C)CCC4CCN(C[C@H]5CN[C@H](C)CN5CC(=O)N5CC(C)(C)c6[nH]c(=O)c(Cc7ccc(F)cc7)cc65)CC4)cc3)CC2)CN1` [Example 104, N^1,N^4-bis(2-(1-(((2R,5R)-1-(2-(6-(4-fluorobenzyl)-3,3-dimethyl-5-oxo-2,3,4,5-tetrahydro-1H-pyrrolo[3,2-b]pyridin-1-yl)-2-oxoethyl)-5-methylpiperazin-2-yl)methyl)piperidin-4-yl)ethyl)-N^1,N^4-dimethylterephthalamide], for which the IC50 is 1.38 to 7.94 nM in assay [1]; 1000 to 3160 nM in assay [3]; 1.38 to 7.94 nM in assay [4]; 1000 to 3160 nM in assay [5]; 10000 to 51300 nM in assay [6] (FRET competition binding); 1.38 to 7.94 nM in assay [7]. Also, the “XIAP BIR3 vs BIR2 separation window” value in assay [1] is recorded as “++++ (FS>10,000)”. Moreover, in assay [2], the EC50 is 63.1 to 316 nM. The “cIAP2 BIR3 vs BIR2 separation window” value in assay [4] is reported as “+++ (10,000>FS>1,000)”. Further, in assay [7], the “cIAP1 BIR3 vs BIR2 separation window” value is on record as “+++ (10,000>FS>1,000)”.
Consider `C[C@@H]1CN(CC(=O)N2CC(C)(C)c3[nH]c(=O)c(Cc4ccc(F)cc4)cc32)[C@@H](CN2CCO[C@H](C(=O)N3CCCN(C(=O)[C@@H]4CN(C[C@H]5CN[C@H](C)CN5CC(=O)N5CC(C)(C)c6[nH]c(=O)c(Cc7ccc(F)cc7)cc65)CCO4)CC3)C2)CN1` [Example 131, 1,1′-(2,2′-((3R,3′R,6R,6′R)-(((2S,2'S)-(1,4-diazepane-1,4-dicarbonyl)bis(morpholine-2,4-diyl))bis(methylene))bis(3-methylpiperazine-6,1-diyl))bis(acetyl))bis(6-(4-fluorobenzyl)-3,3-dimethyl-1,2,3,4-tetrahydro-5H-pyrrolo[3,2-b]pyridin-5-one)], for which the IC50 is 15.8 to 31.6 nM in assay [1]; 1000 to 3160 nM in assay [3]; 7.94 to 15.8 nM in assay [4]; 1000 to 3160 nM in assay [5]; 10000 to 51300 nM in assay [6] (FRET competition binding); 31.6 to 501 nM in assay [7]. The “XIAP BIR3 vs BIR2 separation window” value in assay [1] is reported as “++++ (FS>10,000)”. In addition, in assay [2], the EC50 is 12.6 to 63.1 nM. Besides, the “cIAP2 BIR3 vs BIR2 separation window” value in assay [4] is “+++ (10,000>FS>1,000)”. For the same compound, the “cIAP1 BIR3 vs BIR2 separation window” value in assay [7] is reported as “++ (1,000>FS>100)”.
In the case of `C[C@@H]1CN(CC(=O)N2CC(C)(C)c3ncc(Cc4ccc(F)cc4)cc32)[C@@H](CN2CCO[C@H](COc3cccc(OC[C@@H]4CN(C[C@H]5CN[C@H](C)CN5CC(=O)N5CC(C)(C)c6ncc(Cc7ccc(F)cc7)cc65)CCO4)c3)C2)CN1` [Compound 145], the IC50 was 31.6 to 501 nM in assay [1]; 3160 to 10000 nM in assay [3]; 7.94 to 15.8 nM in assay [4]; 10000 to 51300 nM in assay [5]; 10000 to 51300 nM in assay [6] (FRET competition); 7.94 to 15.8 nM in assay [7]. In addition, the “XIAP BIR3 vs BIR2 separation window” value in assay [1] was “++++ (FS>10,000)”. For the same compound, the EC50 in assay [2] was 12.6 to 63.1 nM. The “cIAP2 BIR3 vs BIR2 separation window” value in assay [4] was “+++ (10,000>FS>1,000)”. Further, in assay [7], the “cIAP1 BIR3 vs BIR2 separation window” value is on record as “+++ (10,000>FS>1,000)”.
`C[C@@H]1CN(CC(=O)N2CC(C)(C)c3[nH]c(=O)c(Cc4ccc(F)cc4)cc32)[C@@H](CN2CCO[C@H](C(=O)NC3CCN(C(=O)[C@@H]4CN(C[C@H]5CN[C@H](C)CN5CC(=O)N5CC(C)(C)c6[nH]c(=O)c(Cc7ccc(F)cc7)cc65)CCO4)CC3)C2)CN1` [Example 129, (S)-4-(((2R,5R)-1-(2-(6-(4-fluorobenzyl)-3,3-dimethyl-5-oxo-2,3,4,5-tetrahydro-1H-pyrrolo[3,2-b]pyridin-1-yl)-2-oxoethyl)-5-methylpiperazin-2-yl)methyl)-N-(1-((S)-4-(((2R,5R)-1-(2-(6-(4-fluorobenzyl)-3,3-dimethyl-5-oxo-2,3,4,5-tetrahydro-1H-pyrrolo[3,2-b]pyridin-1-yl)-2-oxoethyl)-5-methylpiperazin-2-yl)methyl)morpholine-2-carbonyl)piperidin-4-yl)morpholine-2-carboxamide]: the IC50 in assay [1] was 15.8 to 31.6 nM; in assay [3] it was 22.4 to 1000 nM; in assay [4], 7.94 to 15.8 nM; in assay [5] it was 1000 to 3160 nM; in assay [6] (FRET competition binding), 10000 to 51300 nM; in assay [7], 7.94 to 15.8 nM. For the same compound, the “XIAP BIR3 vs BIR2 separation window” value in assay [1] was “++++ (FS>10,000)”. The EC50 in assay [2] was 0.49 to 12.6 nM. In addition, the “cIAP2 BIR3 vs BIR2 separation window” value in assay [4] was “+++ (10,000>FS>1,000)”. For the same compound, the “cIAP1 BIR3 vs BIR2 separation window” value in assay [7] is reported as “++ (1,000>FS>100)”.
